Legend:
Glutamate NMDA receptor = experiment: Compound was evaluated for the inhibition of [3H]CGS-19,755 binding to NMDA receptor from rat brain synaptic membrane.
[1] = target: Glutamate receptor ionotropic, AMPA (Rattus norvegicus, UniProt P19490+P19491+P19492+P19493)
Description: Compound was evaluated for the inhibition of [3H]AMPA binding to Ionotropic glutamate receptor AMPA from rat brain synaptic membrane.

## C=C(C)[C@H]1CN[C@H](C(=O)O)[C@H]1CC(=O)O [KAINIC ACID]
Glutamate NMDA receptor
  IC50: > 100 µM

## CN[C@H](CC(=O)O)C(=O)O [N-METHYL-D-ASPARTIC ACID (NMDA)]
[1]
  IC50: > 100 µM
Glutamate NMDA receptor
  IC50: 5.5 µM

## C=C[C@H]1[C@H](C(=O)O)[C@@H]1[C@H](N)C(=O)O
[1]
  IC50: 4 µM
Glutamate NMDA receptor
  IC50: 1.2 µM

## C=C1C[C@@H]([C@H](N)C(=O)O)[C@@H](C(=O)O)C1
[1]
  IC50: 7.5 µM
Glutamate NMDA receptor
  IC50: > 100 µM

## CC[C@H]1[C@H](C(=O)O)[C@@H]1[C@H](N)C(=O)O
[1]
  IC50: 2 µM
Glutamate NMDA receptor
  IC50: 2 µM

## N[C@H](C(=O)O)[C@@H]1[C@@H](COCc2ccccc2)[C@@H]1C(=O)O
[1]
  IC50: > 100 µM
Glutamate NMDA receptor
  IC50: 21 µM

## N[C@H](C(=O)O)[C@@H]1C[C@@H]1C(=O)O
Glutamate NMDA receptor
  IC50: 0.0052 µM

## COC[C@H]1[C@H](C(=O)O)[C@@H]1[C@H](N)C(=O)O
[1]
  IC50: 4 µM
Glutamate NMDA receptor
  IC50: 50 µM

Source: ChEMBL document CHEMBL1129191, “Syntheses of trans-3-substituted-CCG-IV analogs and their characterization to ionotropic glutamate receptors” (Bioorg Med Chem Lett, 1996)
